Reference: PMC8002452, “Molecular Basis of AmpC β-Lactamase Induction by Avibactam in Pseudomonas aeruginosa: PBP Occupancy, Live Cell Binding Dynamics and Impact on Resistant Clinical Isolates Harboring PDC-X Variants” (International Journal of Molecular Sciences, 2021)

Legend:
PBP3 [1] = biological target: T1, PBP3 (Pseudomonas aeruginosa, UniProt G3XD46); assay: biochemical; type: binding, P. aeruginosa PAO1; conditions: PAO1 membranes 0.5 mg/mL, 30 min, 25 µM bocillin FL
T1 construct: PBP-containing membranes were isolated by ultracentrifugation; endogenous in cells; host or cells: P. aeruginosa PAO1 wild type (membrane preparations or intact cells)
T1 sequence (G3XD46 whole entry): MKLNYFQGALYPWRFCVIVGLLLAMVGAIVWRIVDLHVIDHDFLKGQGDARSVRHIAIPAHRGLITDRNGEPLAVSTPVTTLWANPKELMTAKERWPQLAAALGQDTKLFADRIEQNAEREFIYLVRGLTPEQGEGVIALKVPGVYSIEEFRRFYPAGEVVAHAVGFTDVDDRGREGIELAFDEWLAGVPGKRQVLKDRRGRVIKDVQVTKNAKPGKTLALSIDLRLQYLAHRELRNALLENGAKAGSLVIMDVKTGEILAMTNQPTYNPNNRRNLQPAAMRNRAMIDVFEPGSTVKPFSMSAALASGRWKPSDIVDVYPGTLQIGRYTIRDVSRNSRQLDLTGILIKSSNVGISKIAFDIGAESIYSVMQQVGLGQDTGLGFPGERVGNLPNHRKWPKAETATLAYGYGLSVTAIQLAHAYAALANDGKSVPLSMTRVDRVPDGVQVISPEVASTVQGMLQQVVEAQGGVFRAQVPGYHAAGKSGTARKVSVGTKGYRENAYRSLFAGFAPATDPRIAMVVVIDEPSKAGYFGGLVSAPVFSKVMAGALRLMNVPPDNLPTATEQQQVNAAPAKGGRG
Protocol: PBP-binding affinity was determined using previously described methods. Briefly, P. aeruginosa PAO1 cultures grown to the midexponential phase (7.6 log10 CFU/mL) were incubated in CAMHB at 37 °C and 180 rpm, washed and centrifuged (3220× g for 10 min at 4 °C). Bacterial pellets were washed in 30 mL of PBS buffer (pH 7.5), resuspended in 10 mL of PBS and sonicated at 40% amplitude for three 2 min bursts (while immersed in an ice bath) and centrifuged at 3220× g for 15 min at 4 °C. PBP-containing membranes were isolated by ultracentrifugation at 150,000× g for 30 min at 4 °C. Total protein concentrations were measured through the Bradford method.
Subsequently, the fluorescent penicillin bocillin FL was added to a 25 μM final concentration. Labeled PBPs were denatured and separated through 4–15% SDS–polyacrylamide gel electrophoresis. Labeled PBPs were visualized using a Typhoon FLA 9500 biomolecular imager (GE Healthcare Bio-Sciences AB, Uppsala, Sweden) (excitation at 488 nm and emission at 530 nm), and binding was determined from at least three independent experiments using ImageQuant TL software v8.1.0.0 (GE Healthcare Bio-Sciences AB, Uppsala, Sweden).

PBP1b = PBP1b (Pseudomonas aeruginosa, UniProt G3XD31); assay: Intact cells' time-course of PBP-binding assay; type: cell-based, P. aeruginosa PAO1; conditions: 1 h; intact PAO1 cells, 4 µg/mL avibactam, 60 min; read-out: PBP1b fraction bound
Chain of PBP1b (G3XD31 entry or part of it): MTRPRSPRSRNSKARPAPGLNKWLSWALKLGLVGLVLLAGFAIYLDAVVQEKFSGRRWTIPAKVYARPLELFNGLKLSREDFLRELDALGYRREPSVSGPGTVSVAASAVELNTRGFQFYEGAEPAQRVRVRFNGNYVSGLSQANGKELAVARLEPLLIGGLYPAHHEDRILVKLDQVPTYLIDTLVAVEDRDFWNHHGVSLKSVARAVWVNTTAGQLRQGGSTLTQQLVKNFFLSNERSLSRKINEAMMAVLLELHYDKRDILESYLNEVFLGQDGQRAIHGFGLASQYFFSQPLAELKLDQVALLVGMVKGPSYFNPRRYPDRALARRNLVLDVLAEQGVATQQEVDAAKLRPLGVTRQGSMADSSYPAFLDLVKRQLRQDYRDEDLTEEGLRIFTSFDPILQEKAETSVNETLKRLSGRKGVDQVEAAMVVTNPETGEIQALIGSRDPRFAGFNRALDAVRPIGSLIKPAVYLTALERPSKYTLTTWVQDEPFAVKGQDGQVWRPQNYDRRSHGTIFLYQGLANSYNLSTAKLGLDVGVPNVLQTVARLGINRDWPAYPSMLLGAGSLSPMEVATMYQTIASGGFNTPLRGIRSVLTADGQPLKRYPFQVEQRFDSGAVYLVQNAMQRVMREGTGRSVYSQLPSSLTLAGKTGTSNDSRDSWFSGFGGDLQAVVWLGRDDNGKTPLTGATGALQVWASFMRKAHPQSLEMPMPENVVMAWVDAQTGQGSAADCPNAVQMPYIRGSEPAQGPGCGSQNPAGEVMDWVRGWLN
Protocol: (§1) Figure 2 Time-course of intact cells and isolated PBP-binding assay. P. aeruginosa PAO1 cultures (a) and isolated PBP-containing membrane preparations (b) were incubated for 15, 30 and 60 min in the presence of 4 µg/mL avibactam (AVI). After isolating PBP-containing membranes, preparations were labeled with 25 µM bocillin FL. The graphs represent the PBP fraction unbound relative to each time control over time. The mean PBP fraction unbound values from at least three independent experiments ± standard deviations are shown.
(§2) P. aeruginosa PAO1 cultures grown to the midexponential phase (7.6 log10 CFU/mL) were preincubated in cation-adjusted Mueller–Hinton broth (CAMHB) at 37 °C (180 rpm) for 20 min. Afterwards, 4 µg/mL of avibactam (AVI) was added, and the bacterial cultures were incubated (37 °C, 180 rpm). Control and treatment samples were taken after 15, 30 and 60 min incubation, kept in ice and centrifuged (3220× g for 10 min at 4 °C). The bacterial pellets were washed in 30 mL phosphate-buffered saline (PBS) (pH 7.5) four times, resuspended in 10 mL of PBS and sonicated by using a Digital Sonifier Unit model S-450D (Branson Ultrasonics Corp., Danbury, CT, USA) at 40% amplitude for three 2 min bursts (while immersed in an ice bath) and centrifuged at 3220× g for 15 min at 4 °C. Membranes containing the PBPs were isolated by ultracentrifugation at 150,000× g for 30 min at 4 °C using an Optima L100XP Ultra centrifuge (Beckman Coulter, Inc., Palo Alto, CA, USA) and were resuspended in 60 μL of PBS. Total protein content was measured using the Quick Start Bradford protein assay kit with bovine serum albumin as a standard (Bio-Rad Laboratories, Hercules, CA, USA), according to the manufacturer’s instructions. To determine the PBP fraction unbound, membranes containing PBPs (20 μL, at 0.5 mg/mL) were labeled with a 25 μM concentration of the fluorescent penicillin bocillin FL [32]. Labeled PBPs were denatured and separated through 4–15% SDS–polyacrylamide gel electrophoresis (Bio-Rad Laboratories, Hercules, CA, USA). Labeled PBPs were visualized using a Typhoon FLA 9500 biomolecular imager (GE Healthcare Bio-Sciences AB, Uppsala, Sweden) (excitation at 488 nm and emission at 530 nm), and binding to different PBPs was determined from at least three independent experiments using ImageQuant TL software v8.1.0.0 (GE Healthcare Bio-Sciences AB, Uppsala, Sweden).

PBP4 = PBP4 (Pseudomonas aeruginosa, UniProt Q9HZG1); assay: Intact cells' time-course of PBP-binding assay; type: cell-based, P. aeruginosa PAO1; conditions: 1 h; intact PAO1 cells, 4 µg/mL avibactam, 60 min; read-out: PBP4 fraction bound
Chain of PBP4 (Q9HZG1 entry or part of it): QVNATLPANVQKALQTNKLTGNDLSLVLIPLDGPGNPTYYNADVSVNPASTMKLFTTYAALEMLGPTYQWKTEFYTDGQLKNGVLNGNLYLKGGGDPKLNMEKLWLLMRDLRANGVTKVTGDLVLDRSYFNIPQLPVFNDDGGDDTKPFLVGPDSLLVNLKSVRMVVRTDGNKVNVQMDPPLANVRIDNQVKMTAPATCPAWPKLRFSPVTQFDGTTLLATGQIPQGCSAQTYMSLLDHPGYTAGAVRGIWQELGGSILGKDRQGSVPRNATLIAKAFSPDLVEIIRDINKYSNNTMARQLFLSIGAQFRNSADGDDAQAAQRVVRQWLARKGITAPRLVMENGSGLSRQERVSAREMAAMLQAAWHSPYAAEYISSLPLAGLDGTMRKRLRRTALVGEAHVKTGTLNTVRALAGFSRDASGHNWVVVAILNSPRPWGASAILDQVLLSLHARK
Protocol: as §1, §2

PBP5/6 = PBP5/6 (Pseudomonas aeruginosa, UniProt G3XD74); assay: Intact cells' time-course of PBP-binding assay; type: cell-based, P. aeruginosa PAO1; conditions: intact PAO1 cells, 4 µg/mL avibactam, up to 60 min
Chain of PBP5/6 (G3XD74 entry or part of it): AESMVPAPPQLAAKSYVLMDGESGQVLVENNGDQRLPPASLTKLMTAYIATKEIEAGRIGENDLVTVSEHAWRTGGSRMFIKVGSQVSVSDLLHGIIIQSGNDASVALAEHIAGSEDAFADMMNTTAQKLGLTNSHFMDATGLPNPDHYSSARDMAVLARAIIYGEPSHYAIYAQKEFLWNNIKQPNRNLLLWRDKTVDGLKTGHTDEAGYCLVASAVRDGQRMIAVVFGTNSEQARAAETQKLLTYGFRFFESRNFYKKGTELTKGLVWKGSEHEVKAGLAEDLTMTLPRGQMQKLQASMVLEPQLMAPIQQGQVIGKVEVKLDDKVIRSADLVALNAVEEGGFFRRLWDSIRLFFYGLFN
Protocol: as §1, §2

PBP1a = biological target: T2, PBP1a (Pseudomonas aeruginosa, UniProt Q07806); assay: Intact cells' time-course of PBP-binding assay; type: cell-based, P. aeruginosa PAO1; conditions: intact PAO1 cells, 4 µg/mL avibactam, up to 60 min
T2 construct: PBP-containing membranes were isolated by ultracentrifugation; endogenous in cells; host or cells: P. aeruginosa PAO1 wild type (membrane preparations or intact cells)
T2 sequence (Q07806 whole entry): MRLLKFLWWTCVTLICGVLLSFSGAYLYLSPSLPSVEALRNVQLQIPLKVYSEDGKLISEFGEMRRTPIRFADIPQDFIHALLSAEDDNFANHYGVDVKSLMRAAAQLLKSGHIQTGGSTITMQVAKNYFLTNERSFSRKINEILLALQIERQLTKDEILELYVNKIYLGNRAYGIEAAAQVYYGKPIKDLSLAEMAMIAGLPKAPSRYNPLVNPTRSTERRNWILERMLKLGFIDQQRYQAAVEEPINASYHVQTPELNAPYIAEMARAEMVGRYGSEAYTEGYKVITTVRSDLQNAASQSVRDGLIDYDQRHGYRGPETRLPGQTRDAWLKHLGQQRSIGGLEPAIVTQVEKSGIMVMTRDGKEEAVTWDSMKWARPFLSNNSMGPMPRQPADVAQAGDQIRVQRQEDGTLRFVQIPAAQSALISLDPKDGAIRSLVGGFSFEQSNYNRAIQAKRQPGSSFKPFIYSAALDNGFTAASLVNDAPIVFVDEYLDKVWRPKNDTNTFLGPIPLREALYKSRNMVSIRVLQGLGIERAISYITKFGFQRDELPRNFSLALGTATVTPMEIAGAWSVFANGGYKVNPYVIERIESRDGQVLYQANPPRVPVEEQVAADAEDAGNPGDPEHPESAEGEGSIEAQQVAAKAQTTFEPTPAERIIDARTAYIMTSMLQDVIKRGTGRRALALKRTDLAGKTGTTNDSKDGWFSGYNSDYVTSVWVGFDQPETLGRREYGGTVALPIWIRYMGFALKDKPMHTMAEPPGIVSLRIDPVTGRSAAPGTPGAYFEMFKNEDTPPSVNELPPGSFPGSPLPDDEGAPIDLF
Protocol: as §1, §2

PBP2 = biological target: T3, PBP2 (Pseudomonas aeruginosa, UniProt Q9X6V3); assay: Intact cells' time-course of PBP-binding assay; type: cell-based, P. aeruginosa PAO1; conditions: intact PAO1 cells, 4 µg/mL avibactam, 60 min
T3 construct: PBP-containing membranes were isolated by ultracentrifugation; endogenous in cells; host or cells: P. aeruginosa PAO1 wild type (membrane preparations or intact cells)
T3 sequence (Q9X6V3 entry or part of it): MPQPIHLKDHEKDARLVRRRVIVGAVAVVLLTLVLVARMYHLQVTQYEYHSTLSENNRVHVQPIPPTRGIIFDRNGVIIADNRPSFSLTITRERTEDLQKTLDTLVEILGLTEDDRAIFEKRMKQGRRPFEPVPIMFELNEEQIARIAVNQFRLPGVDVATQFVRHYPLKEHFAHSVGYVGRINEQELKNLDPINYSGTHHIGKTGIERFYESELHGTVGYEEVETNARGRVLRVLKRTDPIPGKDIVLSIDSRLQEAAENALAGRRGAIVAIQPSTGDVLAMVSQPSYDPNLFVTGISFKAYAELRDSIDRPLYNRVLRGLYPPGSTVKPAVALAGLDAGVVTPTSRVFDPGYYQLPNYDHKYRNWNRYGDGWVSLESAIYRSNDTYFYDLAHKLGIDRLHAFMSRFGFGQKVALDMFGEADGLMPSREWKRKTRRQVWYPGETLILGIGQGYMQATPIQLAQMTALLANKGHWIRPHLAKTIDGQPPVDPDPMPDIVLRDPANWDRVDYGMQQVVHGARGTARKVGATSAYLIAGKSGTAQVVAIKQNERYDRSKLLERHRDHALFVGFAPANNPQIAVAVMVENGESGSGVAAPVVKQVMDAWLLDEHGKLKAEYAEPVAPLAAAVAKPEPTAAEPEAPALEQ
Protocol: as §1, §2

PBP3 [2] = biological target: T1, PBP3; assay: Intact cells' time-course of PBP-binding assay; type: cell-based, P. aeruginosa PAO1; conditions: intact PAO1 cells, 4 µg/mL avibactam, up to 60 min
Protocol: as §1, §2

NC(=O)[C@@H]1CC[C@@H]2CN1C(=O)N2OS(=O)(=O)O [Avibactam]
Mean IC50 ± SD, PBP 3 (PBP3 [1]): no PBP1a and 3 binding was detected | IC50 (PBP3 [1]; read-out: Mean IC50 ± SD, PBP 3 (converted)): > 121 µM | inhibition at 4 µg/mL (PBP1b): 20% | inhibition at 4 µg/mL (PBP4): ≤ 50% | PBP5/6 binding in whole-cell assay (PBP5/6): No significant | PBP1a binding in whole-cell assay (PBP1a): No significant | PBP2 fraction bound (PBP2): 20% | PBP3 binding in whole-cell assay (PBP3 [2]): No significant
